Article PMC3808368 (2013)

How the values were obtained:
[1] = test system: ATP aptamer (ATP aptamer G-quadruplex) (DNA, aptamer) AACCTGGGGGAGTATTGCGGAGGAAGGT; test: G4-FID, thiazole orange displacement; settings: 100 mM KCl; 50 mM Tris-HCl pH 7.0; 0.25 µM DNA; 0.5 µM thiazole orange displaced
[2] = test system: ATP aptamer (ATP aptamer G-quadruplex) (DNA, aptamer) AACCTGGGGGAGTATTGCGGAGGAAGGT; test: fluorescence, tracer in G4-FID; settings: 100 mM KCl, 50 mM Tris-HCl pH 7.0, 0.25 µM DNA, 0.5 µM thiazole orange
[3] = test system: ATP aptamer duplex (ATP aptamer + complementary strand) (DNA, duplex) AACCTGGGGGAGTATTGCGGAGGAAGGT/ACCTTCCTCCGCAATACTCCCCCAGGTT; test: luminescence enhancement of complex 2; settings: none added; 20 mM Tris-HCl pH 7.3, 25°C; slightly emissive without ATP
[4] = test system: HTS (DNA, G4) TTAGGGTTAGGGTTAGGGTTAGGG; test: luminescence enhancement of complex 2; settings: 50 mM KCl; 20-25 mM Tris-HCl pH 7.0; 1 µM complex, 5 µM DNA; up to 8-fold enhancement
[5] = test system: H21 (DNA, G4) GGGTTAGGGTTAGGGTTAGGG; test: luminescence enhancement of complex 2; settings: 50 mM KCl; 20-25 mM Tris-HCl pH 7.0; 1 µM complex, 5 µM DNA; up to 8-fold enhancement
[6] = test system: ssDNA (DNA, single strand) GAAATTCTTAAGTGCGATCGAG; test: luminescence enhancement of complex 2; settings: 50 mM KCl; 20-25 mM Tris-HCl pH 7.0; 1 µM complex, 5 µM DNA; minimal luminescence change

SMILES	G4DC50 [1] [µM]	binding [2]	binding [3]	binding [4]	binding [5]	binding [6]
[Ir+3].[c-]1ccccc1-c1ccccn1.[c-]1ccccc1-c1ccccn1.c1ccc2nc(-c3ccc4ccccc4n3)ccc2c1	> 6					
CN1C(=Cc2cc[n+](C)c3ccccc23)Sc2ccccc21		yes				
[Ir+3].[c-]1ccccc1-c1nccc2ccccc12.[c-]1ccccc1-c1nccc2ccccc12.c1ccc2nc(-c3ccc4ccccc4n3)ccc2c1	5		weak	yes	yes	no
